Each structure is given as a SMILES string.

In the assay the test system is male Std: Wistar rats. Put plainly: Pain test by plantar thermal stimuli (plantar test). The settings on record: Rattus norvegicus, 4 h, 50 μl of 0.03% (W/V) solution i.pl. into right hind-paw; 4 hours after administration; cut-off 25 seconds; read-out: % MPE (percent maximum possible effect, withdrawal latency). It counts as in vivo. The method, then: Experiment 1: Pain Test by Plantar Thermal Stimuli (Plantar Test)
In the present experiment, the analgesic effect of the compounds of the invention was evaluated by the measurements of withdrawal latency to noxious thermal stimuli, according to the methods of Hargreaves, et al., [Pain, 32, 77-88 (1988)] and Field, et al., [J. Pharmacol. Exp. Ther., 282, 1242-1246 (1997)].
In detail, the experiment was carried out using male Std: Wistar rats (4 rats/group; body weight, 170-220 g) and a plantar test device (Model 7370, Ugo Basile) with infrared beam as a heat source. The rat was put into an experimental cage that is an acrylic box whose bottom is made of glass and was habituated therein. Then, the infrared beam was radiated to the plantar surface of right hind-paw thereof through the floor glass, and the withdrawal latency was measured every 5 minutes, 3 times. The intension of the infrared beam was adjusted so that the pre-drug administration latency was about 10 seconds. The cut-off time was set at 25 seconds in order to prevent a paw burn. The average of the latencies was calculated, and then it was defined as the value of the pre-drug administration latency of the test compound.
Next day, 50 μl of each solution of the test compounds [the compounds of the invention, the compounds of the comparative Examples and capsaicin (Sigma, U.S.A.)] or 50 μl of vehicle solvent (reference) was given to a right hind-paw of the rat by intraplantar injection (i. pl.) using a micro-syringe. The test compound was dissolved in a saline solution containing 10% Tween 80 (Sigma, U.S.A) and 10% ethanol to give a 0.03% (W/V) solution. The saline solution containing 10% Tween 80 and 10% ethanol was used as reference. Four hours after i.pl. administration of each the test compound or the reference to the rats, the experiment mentioned above was carried out, and then the post-drug administration latency was measured. The analgesic effects thereof were calculated with the following formula, which was known as a percent maximum possible effect (% MPE). % MPE=[(the value of post-drug latency−the value of pre-drug latency)/(25*−the value of pre-drug latency)]×100 *: cut-off time
In the case of `COc1cc(CC(=O)N[C@H]2CC[C@@H](/C=C/CC3CC3)CC2)ccc1O` [Example 67], the change in vivo at 300 µg/mL was 55.6%.

Consider `CCC[C@H]1CC[C@@H](NC(=O)Cc2ccc(O)c(OC)c2)CC1` [Example 68, 2-(4-hydroxy-3-methoxyphenyl)-N-(cis-4-propylcyclohexyl)acetamide], for which the change in vivo at 300 µg/mL is 81.6%.

`COc1cc(CC(=O)N[C@H]2CC[C@@H](CCCC(C)C)CC2)ccc1O` [Example 69]: the change in vivo at 300 µg/mL was 79.9%.

With `COc1cc(CC(=O)N[C@H]2CC[C@@H](CCC3CCC3)CC2)ccc1O` [Example 70], the change in vivo at 300 µg/mL was 92.6%.

Consider `COc1cc(CC(=O)N[C@H]2CC[C@@H](CCCC3CC3)CC2)ccc1O` [Example 71], for which the change in vivo at 300 µg/mL was 87.9%.

`C=C(C)/C=C/[C@H]1CC[C@H](NC(=O)Cc2ccc(O)c(OC)c2)CC1` [Example 72, 2-(4-hydroxy-3-methoxyphenyl)-N-{trans-4-[(E)-3-methyl-1,3-butadienyl]cyclohexyl}acetamide]: the change in vivo at 300 µg/mL stood at 75.4%.

In the case of `C/C=C\CC[C@H]1CC[C@H](NC(=O)Cc2ccc(O)c(OC)c2)CC1` [Example 73, 2-(4-hydroxy-3-methoxyphenyl)-N-{trans-4-[(Z)-3-pentenyl]cyclohexyl}acetamide], the change in vivo at 300 µg/mL was determined as 74.1%.

For the molecule `C=CCC[C@H]1CC[C@H](NC(=O)Cc2ccc(O)c(OC)c2)CC1` [Example 74, N-[trans-4-(3-butenyl)cyclohexyl]-2-(4-hydroxy-3-methoxyphenyl)acetamide], the change in vivo at 300 µg/mL came out at 57.1%.

For the molecule `C/C=C/CC[C@H]1CC[C@H](NC(=O)Cc2ccc(O)c(OC)c2)CC1` [Example 75, 2-(4-hydroxy-3-methoxyphenyl)-N-{trans-4-[(E)-3-pentenyl]cyclohexyl}acetamide], the change in vivo at 300 µg/mL was 74.4%.

In the case of `COc1cc(CC(=O)NC2CCC(=C3CCCCC3)CC2)ccc1O` (stereo not shown) [Example 76, N-(4-cyclohexylidenecyclohexyl)-2-(4-hydroxy-3-methoxyphenyl)acetamide], the change in vivo at 300 µg/mL turned out to be 71%.

`CCC(CC)=C1CCC(NC(=O)Cc2ccc(O)c(OC)c2)CC1` (stereo not shown) [Example 77]: the change in vivo at 300 µg/mL was determined as 78.6%.

For the molecule `CCCC(CCC)=C1CCC(NC(=O)Cc2ccc(O)c(OC)c2)CC1` (stereo not shown) [Example 78], the change in vivo at 300 µg/mL came out at 82.8%.

Turning to `COc1cc(CC(=O)NC2CCC(=C3CCC3)CC2)ccc1O` (stereo not shown) [Example 79], the change in vivo at 300 µg/mL is 33.6%.

Take `COc1cc(CC(=O)NC2CCC(=C3CCCC3)CC2)ccc1O` (stereo not shown) [Example 80]: the change in vivo at 300 µg/mL was 37%.

On to `COc1cc(CC(=O)NC2CCC(=C3CCCCCC3)CC2)ccc1O` (stereo not shown) [Example 81], for which the change in vivo at 300 µg/mL is 94.4%.

With `COc1cc(CC(=O)NC2CCC(=C(C)C)CC2)ccc1O` (stereo not shown) [Example 82, 2-(4-hydroxy-3-methoxyphenyl)-N-(4-isopropylidenecyclohexyl)acetamide], the change in vivo at 300 µg/mL amounted to 68.4%.

For the molecule `COc1cc(CC(=O)N[C@H]2CC[C@H](C3CCCCC3)CC2)ccc1O` [Example 83, N-(trans-4-cyclohexylcyclohexyl)-2-(4-hydroxy-3-methoxyphenyl)acetamide], the change in vivo at 300 µg/mL came out at 77.4%.

As to `CCC(CC)[C@H]1CC[C@H](NC(=O)Cc2ccc(O)c(OC)c2)CC1` [Example 84], the change in vivo at 300 µg/mL came to 76.9%.

As for `CCCC(CCC)[C@H]1CC[C@H](NC(=O)Cc2ccc(O)c(OC)c2)CC1` [Example 85], the change in vivo at 300 µg/mL turned out to be 49.3%.

As to `COc1cc(CC(=O)N[C@H]2CC[C@H](C3CCC3)CC2)ccc1O` [Example 86], the change in vivo at 300 µg/mL was 68.6%.

Take `COc1cc(CC(=O)N[C@H]2CC[C@H](C3CCCCCC3)CC2)ccc1O` [Example 87]: the change in vivo at 300 µg/mL was 80.1%.

As to `CCC(CC)C1=CCC(NC(=O)Cc2ccc(O)c(OC)c2)CC1` (stereo not shown) [Example 88, 2-(4-hydroxy-3-methoxyphenyl)-N-[4-(3-pentyl)-3-cyclohexenyl]acetamide], the change in vivo at 300 µg/mL is 95.5%.

For the molecule `CCCC(CCC)C1=CCC(NC(=O)Cc2ccc(O)c(OC)c2)CC1` (stereo not shown) [Example 89, N-[4-(4-heptyl)-3-cyclohexenyl]-2-(4-hydroxy-3-methoxyphenyl)acetamide], the change in vivo at 300 µg/mL was found to be 100%.

Take `COc1cc(CC(=O)N[C@H]2CC[C@H](C=C3CCC3)CC2)ccc1O` [Example 91, N-[trans-4-(cyclobutylidenemethyl)-cyclohexyl]-2-(4-hydroxy-3-methoxyphenyl)acetamide]: the change in vivo at 300 µg/mL was determined as 74.2%.

Consider `COc1cc(CC(=O)N[C@H]2CC[C@H](CC3CCC3)CC2)ccc1O` [Example 93, N-[trans-4-(cyclobutylmethyl)cyclohexyl]-2-(4-hydroxy-3-methoxyphenyl)acetamide], for which the change in vivo at 300 µg/mL was determined as 69.7%.

With `C/C=C\C[C@H]1CC[C@H](NC(=O)Cc2ccc(O)c(OC)c2)CC1` [Example 94, N-{trans-4-[(Z)-2-butenyl]cyclohexyl}-2-(4-hydroxy-3-methoxyphenyl)acetamide], the change in vivo at 300 µg/mL is 69.1%.

Regarding `COc1cc(CC(=O)N[C@H]2CC[C@@H](C=C(C)C)CC2)ccc1O` [Example 95, 2-(4-hydroxy-3-methoxyphenyl)-N-[cis-4-(2-methyl-1-propenyl)cyclohexyl]acetamide], the change in vivo at 300 µg/mL was 88.8%.

For `COc1cc(CC(=O)N[C@H]2CC[C@@H](CC(C)C)CC2)ccc1O` [Example 96, 2-(4-hydroxy-3-methoxyphenyl)-N-[cis-4-(2-methylpropyl)cyclohexyl]acetamide], the change in vivo at 300 µg/mL came out at 80.4%.

Regarding `C/C=C(\CC)[C@H]1CC[C@@H](NC(=O)Cc2ccc(O)c(OC)c2)CC1` [Example 97, N-{cis-4-[(E)-1-ethyl-1-propenyl]-cyclohexyl}-2-(4-hydroxy-3-methoxyphenyl)acetamide], the change in vivo at 300 µg/mL turned out to be 63.8%.

Take `CCC(CC)[C@H]1CC[C@@H](NC(=O)Cc2ccc(O)c(OC)c2)CC1` [Example 98, 2-(4-hydroxy-3-methoxyphenyl)-N-[cis-4-(3-pentyl)cyclohexyl]acetamide]: the change in vivo at 300 µg/mL came to 74.6%.

In the case of `COc1cc(CC(=O)N[C@H]2CC[C@H](CCCCF)CC2)ccc1O` [Example 99, N-[trans-4-(4-fluorobutyl)cyclohexyl]-2-(4-hydroxy-3-methoxyphenyl)acetamide], the change in vivo at 300 µg/mL came out at 55.8%.

Consider `COc1cc(CC(=O)N[C@H]2CC[C@H](CC3CC3)CC2)ccc1O` [Example 100, N-(trans-4-cyclopropylmethylcyclohexyl)-2-(4-hydroxy-3-methoxyphenyl)acetamide], for which the change in vivo at 300 µg/mL was 44.5%.

Turning to `COc1cc(CC(=O)N[C@H]2CC[C@H](/C=C/CC(F)(F)F)CC2)ccc1O` [Example 102], the change in vivo at 300 µg/mL stood at 56.6%.

Take `COc1cc(CC(=O)N[C@H]2CC[C@H](/C=C/CCF)CC2)ccc1O` [Example 103]: the change in vivo at 300 µg/mL came out at 36.7%.

For the molecule `COc1cc(CC(=O)NC2CCC3(CCCCC3)CC2)ccc1O` [Example 105, 2-(4-hydroxy-3-methoxyphenyl)-N-(spiro[5.5]undec-3-yl)acetamide], the change in vivo at 300 µg/mL was 63.4%.

In the case of `CCC1(CC)CCC(NC(=O)Cc2ccc(O)c(OC)c2)CC1` [Example 106], the change in vivo at 300 µg/mL came out at 51.5%.

Regarding `CCCCC1(CC)CCC(NC(=O)Cc2ccc(O)c(OC)c2)CC1` (stereo not shown) [Example 107], the change in vivo at 300 µg/mL was 85.2%.

For the origin of these results see patent US7767854B2, “N-substituted phenylacetamide derivative and pharmaceutical composition containing the same” (Dainippon Sumitomo Pharma Co., Ltd., priority 2005, dated 2010).
